# Measurements: US10091998B2, “Tetrazolinone compound and use thereof” (SUMITOMO CHEMICAL COMPANY, LIMITED, priority 2013, dated 2018)
# System: cucumber powdery mildew fungus (Sphaerotheca fuliginea, a QoI-resistant strain, cytochrome b position 143 glycine to alanine)
# Type: in vivo
# Details: 500 ppm spray on cucumber (SAGAMI HANJIRO); investigated 8 days after inoculation
structure (smiles),measurement,value
"Cn1nnn(-c2ccccc2OCc2ccccc2)c1=O [1-[2-(phenylmethoxy)phenyl]-4-methyl-1,4-dihydrotetrazol-5-one]",area of lesion on the treated plant relative to that on an untreated plant,≥ 70%
